Experiments:
Assay in all cases: relative viability (nuclei count vs DMSO), 5 days (fraction); higher = more cells survive
[1] = compound: CC1=C(C(=O)N2C=CSC2=N1)CCN3CCC(=C(C4=CC=CC=C4)C5=CC=C(C=C5)F)CC3 + COc1cc2c(Oc3ccc(NC(=O)C4(C(=O)Nc5ccc(F)cc5)CC4)cc3F)ccnc2cc1OCCCN1CCOCC1 [Foretinib] (partner 0.25 µM)
Summary of the method: (§1)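 Medians of duplicate plates are given as relative viability. That measure is the nuclei count in treated wells divided by the count in vehicle wells. Counts were taken on 4× images of lung cancer cell lines in 1536-well plates, 5 days after pin-tool dosing the day after seeding with one drug alone or a fixed anchor-drug dose plus five library-drug doses (not always all listed) in √10 steps.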

[2] = compound: CC1=C(C(=O)N2C=CSC2=N1)CCN3CCC(=C(C4=CC=CC=C4)C5=CC=C(C=C5)F)CC3 + NC(=O)Nc1cc(-c2cccc(F)c2)sc1C(=O)N[C@H]1CCCNC1 [AZD7762] (partner 0.2 µM)
Summary of the method: as §1

[3] = compound: CC1=C(C(=O)N2C=CSC2=N1)CCN3CCC(=C(C4=CC=CC=C4)C5=CC=C(C=C5)F)CC3 + CS(=O)(=O)N1CCN(Cc2cc3nc(-c4cccc5[nH]ncc45)nc(N4CCOCC4)c3s2)CC1 [Pictilisib] (partner 1 µM)
Summary of the method: as §1

[4] = compound: CC1=C(C(=O)N2C=CSC2=N1)CCN3CCC(=C(C4=CC=CC=C4)C5=CC=C(C=C5)F)CC3 + O=C(CCCCCCC(=O)Nc1ccccc1)NO [Vorinostat] (partner 1 µM)
Summary of the method: as §1

| Cell Line | relative viability ([1]; first compound 0.08 µM) | relative viability ([1]; first compound 0.253 µM) | relative viability ([1]; first compound 0.8 µM) | relative viability ([1]; first compound 2.53 µM) | relative viability ([1]; first compound 8 µM) | relative viability ([2]; first compound 0.08 µM) | relative viability ([2]; first compound 0.253 µM) | relative viability ([2]; first compound 0.8 µM) | relative viability ([2]; first compound 2.53 µM) | relative viability ([2]; first compound 8 µM) | relative viability ([3]; first compound 0.08 µM) | relative viability ([3]; first compound 0.253 µM) | relative viability ([3]; first compound 0.8 µM) | relative viability ([3]; first compound 2.53 µM) | relative viability ([3]; first compound 8 µM) | relative viability ([4]; first compound 0.08 µM) | relative viability ([4]; first compound 0.253 µM) | relative viability ([4]; first compound 0.8 µM) | relative viability ([4]; first compound 2.53 µM) | relative viability ([4]; first compound 8 µM) |
| --- | --- | --- | --- | --- | --- | --- | --- | --- | --- | --- | --- | --- | --- | --- | --- | --- | --- | --- | --- | --- |
| NCI-H1734 | 0.991 | 0.913 | 0.72 | 0.992 | 0.555 | 0.545 | 0.487 | 0.475 | 0.549 | 0.368 | 0.476 | 0.468 | 0.485 | 0.504 | 0.331 | 0.881 | 0.652 | 0.734 | 0.86 | 0.747 |
| EKVX | 0.671 | 1.04 | 0.815 | 0.855 | 0.677 | 0.602 | 0.753 | 0.808 | 0.553 | 0.641 | 0.38 | 0.412 | 0.479 | 0.408 | 0.36 | 0.577 | 0.723 | 0.651 | 0.63 | 0.561 |
| NCI-H2085 | 0.882 | 1.05 | 1.07 | 1.05 | 0.7 | 1.06 | 1.29 | 0.92 | 1.03 | 0.89 | 0.449 | 0.462 | 0.45 | 0.442 | 0.409 | 0.85 | 0.827 | 0.758 | 0.807 | 0.707 |
| NCI-H1437 | 1.23 | 1.32 | 1.31 | 1.34 | 0.841 | 1.25 | 1.32 | 1.21 | 1.14 | 1.04 | – | 0.446 | 0.388 | 0.406 | 0.485 | 0.702 | 0.867 | 0.901 | 0.9 | 0.386 |
| NCI-H1355 | 1.09 | 0.94 | 1.08 | 0.893 | 0.661 | 1.02 | 0.846 | 0.822 | 0.815 | 0.595 | 0.445 | 0.504 | 0.534 | 0.472 | 0.385 | 0.588 | 0.602 | 0.6 | 0.611 | 0.529 |
| NCI-H596 | 0.797 | 0.936 | 0.885 | 1.1 | 0.519 | 1.18 | 0.913 | 1.2 | 1.08 | 0.965 | 0.435 | 0.418 | 0.38 | 0.369 | 0.386 | 0.57 | 0.576 | 0.626 | 0.583 | 0.587 |
| NCI-H322M | 0.86 | 1.01 | 1.11 | 0.942 | 0.9 | 0.601 | 0.606 | 0.563 | 0.516 | 0.543 | 0.513 | 0.526 | 0.524 | 0.526 | 0.496 | 0.898 | 0.845 | 0.862 | 0.953 | 0.943 |
| LC-2-ad | 0.971 | 1.09 | 0.892 | 1.12 | 0.761 | 0.777 | 0.725 | 0.866 | 0.966 | 0.613 | 0.418 | 0.369 | 0.513 | 0.646 | 0.427 | 0.661 | 0.517 | 0.771 | 0.748 | 0.53 |
| ChaGo-K-1 | 0.884 | 1.04 | 1.04 | 0.942 | 0.548 | 0.763 | 0.919 | 0.925 | 0.928 | 0.694 | 0.976 | 0.593 | 0.476 | 0.937 | 0.604 | 0.616 | 0.76 | 0.809 | 0.757 | 0.597 |
| LCLC-103H | 0.864 | 0.567 | 0.732 | 0.761 | 0.496 | 0.923 | 0.766 | 0.781 | 0.822 | 0.655 | 0.884 | 0.636 | 0.449 | 0.618 | 0.566 | 0.891 | 0.784 | 0.76 | 0.75 | 0.709 |
| HOP-62 | 1.17 | 0.995 | 1.14 | 1.06 | 0.705 | 0.445 | 0.51 | 0.522 | 0.534 | 0.323 | 0.891 | 0.72 | 0.827 | 0.745 | 0.611 | 0.522 | 0.628 | 0.552 | 0.468 | 0.323 |

Source: the supplement of paper PMC10307832
